# According to patent publication US20030032674A1, “Use of unsaturated fatty acids to treat severe inflammatory diseases” (priority 2001, published 2003):
# How the values were obtained:
# [1] = system: COX-2 expression; assay: COX-2 immunoblot (Western blot) in RAW 264.7 cells; type: cell-based, murine; conditions: RAW 264.7; 75 μM fatty acid
# Protocol: (§1) Cell culture—RAW 264.7 cells (a murine macrophage-like cell line, ATCC TIB-71), 293T cells (a human embryonic kidney cell line, provided by Sam Lee, Beth Israel Hospital. Boston, Mass.), and HT-29 cells (a human colon adenocarcinoma cell line, ATCC HTB-38) were cultured in Dulbecco's modified Eagle's medium (DMEM) containing 10% (v/v) heat-inactivated fetal bovine serum (FBS, Intergen) and 100 units/ml Penicillin and […] Streptomycin (GIBCO-BRL) at 37° C. in a 5% CO2/air environment. Cells (2×10^6) were plated in 60-mm dishes and cultured for an additional 18 hours to allow the number of cells to approximately double. Cells were maintained in serum-poor (0.25% FBS) medium for another 18 hours prior to the treatment with indicated reagents.
# Preparation of fatty acids-albumin complexes—All fatty acids were solubilized in ethanol, and then combined with fatty acid-free and low-endotoxin BSA at a molar ratio of 10:1 (fatty acid: albumin) in serum-poor medium (0.25% FBS). Fatty acids-albumin complex solution was freshly prepared prior to each experiment.
# Sodium dodecyl sulfate-polyacrylamide gel electrophoresis (SDS-PAGE) and immunoblotting—These procedures were performed as previously described in D. Hwang et al., “Expression of mitogen-inducible cyclooxygenase induced by lipopolysaccharide: mediation through both mitogen-activated protein kinase and NF-kappaB signaling pathways in macrophages,” Biochem. Pharmacol., vol. 54, pp. 87-96 (1997). Briefly, solubilized proteins were subjected to 8% SDS-PAGE for COX-2, iNOS, IL- 1α and GAPDH immunoblot analyses. Following electrophoresis, the gel was transferred to a PVDF membrane and the membrane was blocked to prevent non-specific binding of antibodies in TBS-T [20 mM Tris HCl, 137 mM NaCl, 0.05% (v/v) Tween 20, pH 7.6] containing 5% non-fat dried milk (Carnation). Immunoblotting was performed using respective polyclonal antibodies followed by incubation with anti-rabbit IgG coupled to horseradish peroxidase. The membrane was exposed on an X-ray film (Kodak) using ECL western blot detection reagents (Amersham).
# After 11 h, cell lysates were analyzed by COX-2, iNOS, IL-1α, or GAPDH immunoblot using a Western blot analysis.
# The cell lysates were analyzed by COX-2 or GAPDH immunoblot.
# RAW 264.7 cells were pretested with various concentrations (5, 10, 20, and 50 μM) of docosahexaenoic acid (C22:6n-3) for 3 hours, and then stimulated with LPS (100 ng/ml) for 8 hours and analyzed by COX-2, iNOS, IL-1 a or GAPDH immunoblot.
# Cells stably transfected with NFκB(5×) or COX-2 promoter reporter genes were pretreated with various concentrations of each fatty acid for 3 hrs. Cells were then treated with LPS (200 ng/ml). After 8 hrs, cell lysates were prepared and luciferase activities were determined. Data are expressed as a percentage of LPS treatment alone. The results for NFκB and COX-2 expression are given in FIGS. 8A and 8B, respectively. The values are mean±SEM (n=3) of RLA, relative luciferase activity. In FIG. 8C, the cells were pretreated with DHA (20 μM) or C12:0 (75 μM) for 3 hrs and further stimulated with LPS (200 ng/ml for DHA; 1 ng/ml for C12:0). After 8 hr, cell lysates were analyzed by COX-2 and actin immunoblotting.
# [2] = system: COX-2 expression; assay: COX-2 immunoblot in TNFα-treated HT-29 colon cancer cells; type: cell-based, human; conditions: pretreated 3 hours, TNFα 20 ng/ml 8 hours
# Protocol: as §1
# Sodium dodecyl sulfate-polyacrylamide gel electrophoresis (SDS-PAGE) and immunoblotting—These procedures were performed as previously described in D. Hwang et al., “Expression of mitogen-inducible cyclooxygenase induced by lipopolysaccharide: mediation through both mitogen-activated protein kinase and NF-kappaB signaling pathways in macrophages,” Biochem. Pharmacol., vol. 54, pp. 87-96 (1997). […]
# Colon cancer cells (HT-29) were pretested with various concentrations of docosahexaenoic acid (C22:6n-3) for 3 hours and then treated with TNFα (20 ng/ml) for 8 hours. Cell lysates were analyzed by COX-2 and GAPDH immunoblot.
# [3] = system: MyD88(CA); assay: NFκB reporter in 293T cells transfected with constitutively active MyD88; type: cell-based, human
# Description: Plasmids and DNA Constructs—All plasmids and constructs were obtained or made as reported in either S. H. Rhee and D. Hwang, “Murine TOLL-like receptor 4 confers lipopolysaccaride responsiveness as determined by activation of NFκB and expression of the inducible cyclooxygenase,” Journal of Biological Chemistry, vol. 275, pp. 34035-34040 (2000); and J. Y. Lee et al., “Saturated fatty acids, but not unsaturated fatty acids, induce the expression of cyclooxygenase-2 mediated through TOLL-like receptor 4,” Journal of Biological Chemistry, vol. 276, pp. 16683-16689 (2001). Briefly, the luciferase reporter plasmids (pGL2) containing the promoter region of the murine COX-2 gene (−3201/+93 or −1017/+93) were provided by David Dewitt (Michigan State University, East Lansing, Mich.). To prepare the wild-type COX-2 promoter fragment, polymerase chain reaction (PCR) was performed with the primers named Kpn-COX2-For and Hind-COX2-Rev using the murine COX-2 (−1017/+93) luciferase reporter plasmid as a template. To prepare the mutant COX-2 promoter fragment containing mutated NFκB site, Kpn-COX2-Fmut and Hind-COX2-Rev were used as primers. Each PCR fragment was inserted into the KpnI and HindIII sites of pGL2 to generate the wild-type or mutant COX-2 (−410/+86) luciferase reporter constructs, respectively. Sequences for wild-type NFκB site and the primers were used as reported elsewhere. […]
# [4] = target: T1, COX-2 (Ovis aries, UniProt P79208); conditions: cited from earlier work
# T1 sequence (P79208 17-603): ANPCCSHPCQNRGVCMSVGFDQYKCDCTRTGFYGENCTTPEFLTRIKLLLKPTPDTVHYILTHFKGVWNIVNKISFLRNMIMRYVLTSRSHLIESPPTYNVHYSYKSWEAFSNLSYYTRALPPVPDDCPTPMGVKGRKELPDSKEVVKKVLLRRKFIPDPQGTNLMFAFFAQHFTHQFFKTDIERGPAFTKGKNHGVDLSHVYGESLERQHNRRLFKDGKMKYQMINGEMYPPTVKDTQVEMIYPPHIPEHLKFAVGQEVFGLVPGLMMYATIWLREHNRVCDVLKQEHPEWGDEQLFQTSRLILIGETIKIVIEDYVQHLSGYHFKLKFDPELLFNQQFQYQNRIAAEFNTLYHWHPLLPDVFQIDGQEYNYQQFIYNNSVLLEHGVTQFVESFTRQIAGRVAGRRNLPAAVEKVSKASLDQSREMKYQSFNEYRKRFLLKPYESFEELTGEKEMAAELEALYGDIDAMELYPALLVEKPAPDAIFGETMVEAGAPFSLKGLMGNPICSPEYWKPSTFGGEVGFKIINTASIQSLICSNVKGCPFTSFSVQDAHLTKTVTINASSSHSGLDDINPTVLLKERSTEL
# [5] = system: COX-2 promoter; assay: COX-2 promoter luciferase reporter gene assay, transiently transfected RAW 264.7 cells; type: cell-based, murine
# Description: Plasmids and DNA Constructs—All plasmids and constructs were obtained or made as reported in either S. H. Rhee and D. Hwang, “Murine TOLL-like receptor 4 confers lipopolysaccaride responsiveness as determined by activation of NFκB and expression of the inducible cyclooxygenase,” Journal of Biological Chemistry, vol. 275, pp. 34035-34040 (2000); and J. Y. Lee et al., “Saturated fatty acids, but not unsaturated fatty acids, induce the expression of cyclooxygenase-2 mediated through TOLL-like receptor 4,” Journal of Biological Chemistry, vol. 276, pp. 16683-16689 (2001). Briefly, the luciferase reporter plasmids (pGL2) containing the promoter region of the murine COX-2 gene (−3201/+93 or −1017/+93) were provided by David Dewitt (Michigan State University, East Lansing, Mich.). To prepare the wild-type COX-2 promoter fragment, polymerase chain reaction (PCR) was performed with the primers named Kpn-COX2-For and Hind-COX2-Rev using the murine COX-2 (−1017/+93) luciferase reporter plasmid as a template. To prepare the mutant COX-2 promoter fragment containing mutated NFκB site, Kpn-COX2-Fmut and Hind-COX2-Rev were used as primers. Each PCR fragment was inserted into the KpnI and HindIII sites of pGL2 to generate the wild-type or mutant COX-2 (−410/+86) luciferase reporter constructs, respectively. Sequences for wild-type NFκB site and the primers were used as reported elsewhere. (See Lee et al., 2001). The 2×NFκB-luciferase reporter construct was a gift from Frank Mercurio (Signal Pharmaceuticals, San Diego, Calif.). HSP70-β-galactosidase reporter plasmid was a gift from Robert Modlin (University of California, Los Angeles, Calif.). The expression plasmids for a constitutively active form of TLR4 (DTLR4) and a dominant-negative mutant, DTLR4 (P712H) were prepared as previously described. See S. H. Rhee et al., 2000. The expression plasmid of the wild-type NFκB-inducing kinase (NIK), pRK-NIK(wt) was a gift from Mike Rothe (Tularik, South San Francisco, Calif.). The dominant-negative mutant of inhibitor kB (pCMV4-IkBa(DN)) was provided by Dean Ballard (Vanderbilt University, Nashville, Tenn.). 4×NFκB-luciferase reporter construct was purchased from Clontech (Palo Alto, Calif.) and used for transient transfection. Heat shock protein 70 (HSP70)-β-galactosidase reporter plasmid was from Robert Modlin (University of Calif., Los Angeles, Calif.). The expression plasmids for a wild-type TLR2 and a dominant-negative mutant [TLR2 (P681H)] were from C. B. Wilson (University of Washington, Seattle, Wash.). Constitutively active chimeric CD4-TLR4 was obtained from C. A. Janeway, Jr. (Yale University, New Haven, Conn.). The constitutively active form of MyD88 (MyD88(ΔToll)) and the dominant-negative mutant, MyD88(ΔDD) were kindly provided by Jurg Tschopp (University of Lausanne, Switzerland). The dominant-negative mutant of mouse PPARg [pCMX-PPARg(L466A/L467A)] was a gift from Ira Schulman (Ligand Pharmaceuticals, San Diego, Calif.). All DNA constructs were prepared in large scale using the EndoFree Plasmid Maxi kit (Qiagen, Chatsworth, Calif.) for transfection.
# Transient transfection and luciferase assay—These procedures were performed as described in S. H. Rhee et al., “Murine TOLL-like receptor 4 confers lipopolysaccharide responsiveness as determined by activation of NFκB and expression of the inducible cyclooxygenase,” J. Biol. Chem., vol. 275, pp. 34035-34040 (2000); and J. H. Paik et al., “Two opposing effects of non-steroidal anti-inflammatory drugs on the expression of the inducible cyclooxygenase, Mediation through different signaling pathways,” J. Biol. Chem., vol. 275, pp. 28173-28179 (2000). Briefly, RAW 264.7 cells were plated in 6-well plates (5×10^5 cells/well) and transfected with luciferase reporter plasmids and HSP70-β-galactosidase plasmid as an internal control using SuperFect transfect reagent (Quiagen) according to the manufacturer's instructions. […]
# [6] = system: NFκB; assay: NFκB luciferase reporter gene assay, transiently transfected RAW 264.7 cells; type: cell-based, murine; conditions: PamCAG 1 μg/ml, 18 hr
# [7] = target: T2, TLR2 (Homo sapiens, UniProt O60603); assay: NFκB reporter in TLR2-transfected 293T cells; type: cell-based; conditions: PamCAG 1 μg/ml, 18 hr
# T2 construct: expressed in transfected cells; host or cells: 293T (stated not to express TLR2)
# Description: Plasmids and DNA Constructs—All plasmids and constructs were obtained or made as reported in either S. H. Rhee and D. Hwang, “Murine TOLL-like receptor 4 confers lipopolysaccaride responsiveness as determined by activation of NFκB and expression of the inducible cyclooxygenase,” Journal of Biological Chemistry, vol. 275, pp. 34035-34040 (2000); and J. Y. Lee et al., “Saturated fatty acids, but not unsaturated fatty acids, induce the expression of cyclooxygenase-2 mediated through TOLL-like receptor 4,” Journal of Biological Chemistry, vol. 276, pp. 16683-16689 (2001). Briefly, the luciferase reporter plasmids (pGL2) containing the promoter region of the murine COX-2 gene (−3201/+93 or −1017/+93) were provided by David Dewitt (Michigan State University, East Lansing, Mich.). To prepare the wild-type COX-2 promoter fragment, polymerase chain reaction (PCR) was performed with the primers named Kpn-COX2-For and Hind-COX2-Rev using the murine COX-2 (−1017/+93) luciferase reporter plasmid as a template. To prepare the mutant COX-2 promoter fragment containing mutated NFκB site, Kpn-COX2-Fmut and Hind-COX2-Rev were used as primers. […]
# Acylation by saturated fatty acids of bacterial lipopeptides is also required for the activation of TLR2. […] After 18 hr, luciferase activities were determined. […]
# T2 sequence (O60603 21-784, species assumed): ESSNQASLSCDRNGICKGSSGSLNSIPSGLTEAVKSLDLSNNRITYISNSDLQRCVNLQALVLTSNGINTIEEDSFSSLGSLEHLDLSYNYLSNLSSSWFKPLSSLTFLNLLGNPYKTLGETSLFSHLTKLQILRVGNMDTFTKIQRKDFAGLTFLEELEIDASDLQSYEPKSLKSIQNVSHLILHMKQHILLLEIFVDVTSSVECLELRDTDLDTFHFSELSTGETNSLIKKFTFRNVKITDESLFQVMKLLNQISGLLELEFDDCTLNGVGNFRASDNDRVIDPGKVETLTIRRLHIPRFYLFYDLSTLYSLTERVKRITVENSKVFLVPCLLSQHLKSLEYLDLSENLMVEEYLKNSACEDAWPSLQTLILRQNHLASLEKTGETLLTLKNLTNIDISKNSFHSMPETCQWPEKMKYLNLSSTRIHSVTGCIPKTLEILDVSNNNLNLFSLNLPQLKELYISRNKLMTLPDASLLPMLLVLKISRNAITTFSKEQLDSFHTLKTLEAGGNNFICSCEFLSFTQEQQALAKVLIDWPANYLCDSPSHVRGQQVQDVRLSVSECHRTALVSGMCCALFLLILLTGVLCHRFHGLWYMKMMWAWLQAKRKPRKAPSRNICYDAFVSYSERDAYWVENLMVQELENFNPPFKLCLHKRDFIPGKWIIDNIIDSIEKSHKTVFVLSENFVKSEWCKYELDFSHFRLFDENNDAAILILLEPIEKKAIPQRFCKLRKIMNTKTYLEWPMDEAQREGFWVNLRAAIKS
Compound,COX-2 expression induced by fatty acid (immunoblot) [1],effect on COX-2 (inhibition) [4],also measured
CCCCC/C=C\C/C=C\C/C=C\C/C=C\CCCC(=O)O [arachidonic acid],unable to induce COX-2 expression,–,–
"CCCCCC/C=C/C=C\CCCCCCCC(=O)O [conjugated linoleic acid, 9(Z), 11(E)-octadecadienoic acid]",unable to induce COX-2 expression,–,–
CC/C=C\C/C=C\C/C=C\C/C=C\C/C=C\C/C=C\CCC(=O)O [docosahexaenoic acid],–,–,effect on TNFα-induced COX-2 expression (immunoblot) [2]: failed to inhibit; effect on NFκB activation induced by MyD88 [3]: does not inhibit
CCCCC/C=C\C/C=C\CCCCCCCC(=O)O [linoleic acid],unable to induce COX-2 expression,not as effective,–
CCCCCCCCCCCCCC(=O)O [myristic acid],–,No effect,–
CCCCCCCC/C=C\CCCCCCCC(=O)O [oleic acid],unable to induce COX-2 expression,no effect,–
CCCCCCCCCCCCCCCC(=O)O [palmitic acid],–,No effect,"COX-2 expression induced by saturated fatty acids (relative luciferase activity) ([5]; saturated fatty acids C8:0-C18:0, 75 μM each, 24 hr): most potent in inducing COX-2 expression"
CCCCCCCCCCCCCCC(=O)O [pentadecanoic acid],–,No effect,–
CCCCCCCCCCCCCCCCCC(=O)O [stearic acid],–,No effect,–
"CC/C=C\C/C=C\C/C=C\CCCCCCCC(=O)O [α-LA, α-linolenic acid]",–,Inhibitory effects,–
"palmitoyl-Cys((RS)-2,3-di(palmitoyloxy)-propyl)-Ala-Gly-OH [PamCAG]",–,–,"expression of COX-2 (endogenous TLR2) ([5]; RAW 264.7, PamCAG 1 μg/ml, 18 hr): induced; NFκB activation (endogenous TLR2) [6]: induced; TLR2 activation as determined by NFκB activation [7]: activated TLR2"
